One block for each compound: values may come before it. Calls of active or inactive are those of the source. The calls are words filed in the database; no cut-off is given here.
How the values were obtained:
COLO 205 = experiment: Cytotoxicity against human COLO205 cells assessed as cell growth at 10 uM after 48 hrs by SRB assay relative to control; assay type: functional; details: COLO 205, 48 h, read-out: Activity
SNB-19 = experiment: Cytotoxicity against human SNB19 cells assessed as cell growth at 10 uM after 48 hrs by SRB assay relative to control; assay type: functional; details: SNB-19, 48 h, read-out: Activity
HL-60 = experiment: Cytotoxicity against human HL60 cells assessed as cell growth at 10 uM after 48 hrs by SRB assay relative to control; assay type: functional; details: HL-60, 48 h, read-out: Activity
786-0 = experiment: Cytotoxicity against human 786-0 cells assessed as cell growth at 10 uM after 48 hrs by SRB assay relative to control; assay type: functional; details: 786-0, 48 h, read-out: Activity
RPMI-8226 = experiment: Cytotoxicity against human RPMI8226 cells assessed as cell growth at 10 uM after 48 hrs by SRB assay relative to control; assay type: functional; details: RPMI-8226, 48 h, read-out: Activity
MOLT-4 = experiment: Cytotoxicity against human MOLT4 cells assessed as cell growth at 10 uM after 48 hrs by SRB assay relative to control; assay type: functional; details: MOLT-4, 48 h, read-out: Activity
TK-10 = experiment: Cytotoxicity against human TK10 cells assessed as cell growth at 10 uM after 48 hrs by SRB assay relative to control; assay type: functional; details: TK-10, 48 h, read-out: Activity
PC-3 = experiment: Cytotoxicity against human PC3 cells assessed as cell growth at 10 uM after 48 hrs by SRB assay relative to control; assay type: functional; details: PC-3, 48 h, read-out: Activity
MDA-MB-231 [1] = experiment: Cytotoxicity against human MDA-MB-231 cells assessed as cell growth at 10 uM after 48 hrs by SRB assay relative to control; assay type: functional; details: MDA-MB-231, 48 h, read-out: Activity
NCI-H322M = experiment: Cytotoxicity against human NCI-H322M cells assessed as cell growth at 10 uM after 48 hrs by SRB assay relative to control; assay type: functional; details: read-out: Activity
DU-145 = experiment: Cytotoxicity against human DU145 cells assessed as cell growth at 10 uM after 48 hrs by SRB assay relative to control; assay type: functional; details: DU-145, 48 h, read-out: Activity
HT-29 = experiment: Cytotoxicity against human HT-29 cells assessed as cell growth at 10 uM after 48 hrs by SRB assay relative to control; assay type: functional; details: HT-29, 48 h, read-out: Activity
U-251 = experiment: Cytotoxicity against human U251 cells assessed as cell growth at 10 uM after 48 hrs by SRB assay relative to control; assay type: functional; details: U-251, 48 h, read-out: Activity
HOP-62 [2] = experiment: Cytotoxicity against human HOP62 cells assessed as cell growth at 10 uM after 48 hrs by SRB assay relative to control; assay type: functional; details: HOP-62, 48 h, read-out: Activity
SF-268 = experiment: Cytotoxicity against human SF268 cells assessed as cell growth at 10 uM after 48 hrs by SRB assay relative to control; assay type: functional; details: SF-268, 48 h, read-out: Activity
SR = experiment: Cytotoxicity against human SR cells assessed as cell growth at 10 uM after 48 hrs by SRB assay relative to control; assay type: functional; details: read-out: Activity
CAKI-1 = experiment: Cytotoxicity against human Caki1 cells assessed as cell growth at 10 uM after 48 hrs by SRB assay relative to control; assay type: functional; details: CAKI-1, 48 h, read-out: Activity
EKVX = experiment: Cytotoxicity against human EKVX cells assessed as cell growth at 10 uM after 48 hrs by SRB assay relative to control; assay type: functional; details: read-out: Activity
[3] = biological target: DNA topoisomerase 2-alpha (Homo sapiens) (UniProt P11388); experiment: Inhibition of human DNA topoisomerase 2 at 100 uM after 1 hr by agarose gel circular DNA decatenation assay
Sequence of DNA topoisomerase 2-alpha (Homo sapiens) (P11388 whole entry): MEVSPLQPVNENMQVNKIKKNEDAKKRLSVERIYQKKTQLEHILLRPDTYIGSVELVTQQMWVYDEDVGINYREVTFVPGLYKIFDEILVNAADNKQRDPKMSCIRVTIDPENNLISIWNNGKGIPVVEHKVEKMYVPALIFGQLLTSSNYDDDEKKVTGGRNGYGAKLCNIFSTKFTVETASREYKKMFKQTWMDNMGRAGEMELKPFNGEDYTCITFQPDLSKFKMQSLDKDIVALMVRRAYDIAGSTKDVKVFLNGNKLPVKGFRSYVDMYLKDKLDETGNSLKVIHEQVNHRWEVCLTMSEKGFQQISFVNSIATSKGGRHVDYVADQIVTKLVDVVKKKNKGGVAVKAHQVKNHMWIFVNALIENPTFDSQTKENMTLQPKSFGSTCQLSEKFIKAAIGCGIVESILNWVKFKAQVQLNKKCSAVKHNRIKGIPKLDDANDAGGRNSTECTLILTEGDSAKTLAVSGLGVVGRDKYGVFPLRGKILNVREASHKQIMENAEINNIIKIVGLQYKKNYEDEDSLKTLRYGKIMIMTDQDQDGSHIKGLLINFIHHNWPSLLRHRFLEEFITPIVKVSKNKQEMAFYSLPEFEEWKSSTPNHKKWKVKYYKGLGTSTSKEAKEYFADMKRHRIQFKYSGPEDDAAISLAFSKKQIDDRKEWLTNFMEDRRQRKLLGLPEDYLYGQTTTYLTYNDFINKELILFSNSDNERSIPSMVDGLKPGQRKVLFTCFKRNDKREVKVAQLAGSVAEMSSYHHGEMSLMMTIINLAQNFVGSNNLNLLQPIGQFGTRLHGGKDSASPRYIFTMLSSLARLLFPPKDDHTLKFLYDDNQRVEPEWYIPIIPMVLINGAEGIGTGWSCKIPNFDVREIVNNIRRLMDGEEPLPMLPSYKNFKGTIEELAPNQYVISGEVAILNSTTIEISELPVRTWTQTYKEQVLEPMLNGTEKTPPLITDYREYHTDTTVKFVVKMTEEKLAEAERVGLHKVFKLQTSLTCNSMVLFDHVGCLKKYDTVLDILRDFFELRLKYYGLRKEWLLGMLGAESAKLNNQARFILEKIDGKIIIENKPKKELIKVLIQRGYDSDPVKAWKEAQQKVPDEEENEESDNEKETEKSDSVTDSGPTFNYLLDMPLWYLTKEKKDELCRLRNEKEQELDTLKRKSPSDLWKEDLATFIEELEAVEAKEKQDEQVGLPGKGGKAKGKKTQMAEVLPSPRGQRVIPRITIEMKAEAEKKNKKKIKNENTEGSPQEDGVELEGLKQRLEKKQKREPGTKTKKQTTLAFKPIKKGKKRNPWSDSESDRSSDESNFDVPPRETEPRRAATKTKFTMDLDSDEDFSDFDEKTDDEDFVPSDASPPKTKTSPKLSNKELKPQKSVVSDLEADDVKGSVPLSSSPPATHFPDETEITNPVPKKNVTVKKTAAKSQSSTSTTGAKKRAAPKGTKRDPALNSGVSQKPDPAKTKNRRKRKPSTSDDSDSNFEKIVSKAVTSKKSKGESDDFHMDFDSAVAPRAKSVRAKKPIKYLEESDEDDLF

MDA-MB-468 = experiment: Cytotoxicity against human MDA-MB-468 cells assessed as cell growth at 10 uM after 48 hrs by SRB assay relative to control; assay type: functional; details: MDA-MB-468, 48 h, read-out: Activity
OVCAR-8 = experiment: Cytotoxicity against human OVCAR8 cells assessed as cell growth at 10 uM after 48 hrs by SRB assay relative to control; assay type: functional; details: OVCAR-8, 48 h, read-out: Activity
SN12C = experiment: Cytotoxicity against human SN12C cells assessed as cell growth at 10 uM after 48 hrs by SRB assay relative to control; assay type: functional; details: read-out: Activity
OVCAR-4 = experiment: Cytotoxicity against human OVCAR4 cells assessed as cell growth at 10 uM after 48 hrs by SRB assay relative to control; assay type: functional; details: OVCAR-4, 48 h, read-out: Activity
OVCAR-5 = experiment: Cytotoxicity against human OVCAR5 cells assessed as cell growth at 10 uM after 48 hrs by SRB assay relative to control; assay type: functional; details: OVCAR-5, 48 h, read-out: Activity
CCRF-CEM = experiment: Cytotoxicity against human CCRF-CEM cells assessed as cell growth at 10 uM after 48 hrs by SRB assay relative to control; assay type: functional; details: read-out: Activity
MDA-MB-231 [4] = experiment: Cytotoxicity against human MDA-MB-231 cells after 48 hrs by SRB assay; assay type: functional; details: MDA-MB-231, 48 h
SW-620 = experiment: Cytotoxicity against human SW620 cells after 48 hrs by SRB assay; assay type: functional; details: SW-620, 48 h
OVCAR-3 = experiment: Cytotoxicity against human OVCAR3 cells after 48 hrs by SRB assay; assay type: functional; details: OVCAR-3, 48 h
HOP-62 [5] = experiment: Cytotoxicity against human HOP62 cells after 48 hrs by SRB assay; assay type: functional; details: HOP-62, 48 h
A498 = experiment: Cytotoxicity against human A498 cells after 48 hrs by SRB assay; assay type: functional; details: A498, 48 h
BT-549 = experiment: Cytotoxicity against human BT549 cells after 48 hrs by SRB assay; assay type: functional; details: BT-549, 48 h
LOX IMVI = experiment: Cytotoxicity in human LOXIMVI cells after 48 hrs by SRB assay; assay type: functional
[6] = Cytotoxicity against human breast cancer cell after 48 hrs by SRB assay; assay type: functional; details: Cancer cell lines
M14 = experiment: Cytotoxicity against human M14 cells after 48 hrs by SRB assay; assay type: functional; details: M14, 48 h
SK-MEL-5 = experiment: Cytotoxicity against human SK-MEL-5 cells after 48 hrs by SRB assay; assay type: functional; details: SK-MEL-5, 48 h
[7] = read-out: LC50 (the source's name)

inhibition [3]: inactive
SMILES: Cn1cc(-c2nc(N)[nH]c(=O)c2-c2cn(C)c3ccccc23)c2ccccc21
growth at 10 µM (COLO 205): 104%
growth at 10 µM (SNB-19): 111%
growth at 10 µM (HL-60): 103%
growth at 10 µM (786-0): 122%
growth at 10 µM (RPMI-8226): 111%
growth at 10 µM (MOLT-4): 105%
growth at 10 µM (TK-10): 82.3%
growth at 10 µM (PC-3): 89.7%
growth at 10 µM (MDA-MB-231 [1]): 105%
growth at 10 µM (NCI-H322M): 88.6%
growth at 10 µM (DU-145): 122%
growth at 10 µM (HT-29): 94.3%
growth at 10 µM (U-251): 100%
growth at 10 µM (HOP-62 [2]): 85.3%
growth at 10 µM (SF-268): 109%
growth at 10 µM (SR): 110%
growth at 10 µM (CAKI-1): 94.6%
growth at 10 µM (EKVX): 105%
growth at 10 µM (MDA-MB-468): 106%
growth at 10 µM (OVCAR-8): 97.5%

SMILES: Cn1cc(-c2c(-c3cn(C)c4ncccc34)nc(N)[nH]c2=O)c2ccccc21
growth at 10 µM (COLO 205): 106%
growth at 10 µM (SNB-19): 111%
growth at 10 µM (HL-60): 105%
growth at 10 µM (786-0): 106%
growth at 10 µM (RPMI-8226): 85.1%
growth at 10 µM (MOLT-4): 97.1%
growth at 10 µM (TK-10): 113%
growth at 10 µM (PC-3): 84.2%
growth at 10 µM (SN12C): 104%
growth at 10 µM (OVCAR-4): 88%
growth at 10 µM (MDA-MB-231 [1]): 96.4%
growth at 10 µM (NCI-H322M): 95.3%
growth at 10 µM (DU-145): 107%
growth at 10 µM (HT-29): 98.5%
growth at 10 µM (U-251): 77.5%
growth at 10 µM (HOP-62 [2]): 91.5%
growth at 10 µM (SF-268): 101%
growth at 10 µM (OVCAR-5): 106%
growth at 10 µM (SR): 90.4%
growth at 10 µM (CAKI-1): 90%
growth at 10 µM (EKVX): 96.3%
growth at 10 µM (CCRF-CEM): 92.5%
growth at 10 µM (MDA-MB-468): 116%
growth at 10 µM (OVCAR-8): 95.8%

SMILES: Cn1c2ccccc2c2c3nc(N)[nH]c(=O)c3c3c4ccccc4n(C)c3c21
GI50 (MDA-MB-231 [4]): 93 µM
TGI (MDA-MB-231 [4]): > 100 µM
CC50 (MDA-MB-231 [4]; [7]): > 100 µM
growth at 10 µM (COLO 205): 67.9%
GI50 (SW-620): 4.05 µM
TGI (SW-620): > 100 µM
CC50 (SW-620; [7]): > 100 µM
GI50 (OVCAR-3): 9.07 µM
TGI (OVCAR-3): 25.6 µM
CC50 (OVCAR-3; [7]): 69.8 µM
growth at 10 µM (SNB-19): 122%
GI50 (HOP-62 [5]): 41 µM
TGI (HOP-62 [5]): > 100 µM
CC50 (HOP-62 [5]; [7]): > 100 µM
growth at 10 µM (HL-60): 34.3%
GI50 (A498): 27.4 µM
TGI (A498): 97.1 µM
CC50 (A498; [7]): > 100 µM
GI50 (BT-549): 16.3 µM
TGI (BT-549): > 100 µM
CC50 (BT-549; [7]): > 100 µM
growth at 10 µM (786-0): 62.3%
growth at 10 µM (RPMI-8226): 61.4%
growth at 10 µM (MOLT-4): 53.3%
growth at 10 µM (TK-10): 50.1%
growth at 10 µM (PC-3): 59.1%
GI50 (LOX IMVI): 4.7 µM
TGI (LOX IMVI): 31.1 µM
CC50 (LOX IMVI; [7]): > 100 µM
growth at 10 µM (SN12C): 61.4%
growth at 10 µM (MDA-MB-231 [1]): 103%
growth at 10 µM (NCI-H322M): 32.9%
growth at 10 µM (DU-145): 44.9%
growth at 10 µM (HT-29): 17.6%
growth at 10 µM (U-251): 76.1%
growth at 10 µM (HOP-62 [2]): 95.2%
growth at 10 µM (SF-268): 73.5%
GI50 [6]: 2.13 µM
TGI [6]: 44.1 µM
CC50 [6, 7]: > 100 µM
GI50 (M14): 3.36 µM
TGI (M14): 89.6 µM
CC50 (M14; [7]): > 100 µM
GI50 (SK-MEL-5): 3.25 µM
TGI (SK-MEL-5): 13.7 µM
CC50 (SK-MEL-5; [7]): 37.9 µM
growth at 10 µM (SR): 64%
growth at 10 µM (CAKI-1): -14.9%
growth at 10 µM (EKVX): 73.5%
inhibition [3]: inactive
growth at 10 µM (CCRF-CEM): 35.2%
growth at 10 µM (MDA-MB-468): 80.3%
growth at 10 µM (OVCAR-8): 43.1%

Reference: ChEMBL document CHEMBL2086254, “Synthesis and identification of novel indolo[2,3-a]pyrimido[5,4-c]carbazoles as a new class of anti-cancer agents” (Eur J Med Chem, 2012)
